Results taken from patent US11591341B2 (ALIGOS THERAPEUTICS, INC., priority 2019, dated 2023).

Test system: HBV
Assay: HBV-DNA Antiviral Assay Using HepG2.117 Cells (intracellular HBV DNA by qPCR)
Format: cell-based, hepatitis B virus (genotype D)
Details: Hepatitis B virus, HepG2.117
Outline: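 Endpoint: qPCR copy number of intracellular HBV DNA after 3-day compound exposure, with inhibition set relative to the 2% DMSO control. The cells were doxycycline-free HepG2.117 carrying a Tet-off genotype D genome, dosed at nine 4-fold dilutions. A duplicate plate gave ATP-based viability (CC50).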

With `CC(C)Oc1ccc(-n2c(C(=O)NCc3ccc4[nH]cnc4c3)c3n(c2=O)CCN(C(=O)c2ccc(Br)c(Cl)c2)C3)cc1` [Example 219, N-(1H-benzimidazol-5-ylmethyl)-7-(4-bromo-3-chloro-benzoyl)-2-(4-isopropoxyphenyl)-3-oxo-6,8-dihdyro-5H-imidazo[1,5-a]pyrazine-1-carboxamide] as the molecule, how does the EC50 read?
Its EC50 is 0.5 to 5 µM.

Which EC50 does the source give for `CC(C)Oc1ccc(-n2c(C(=O)NCc3ccc4occc4c3)c3n(c2=O)CCN(C(=O)c2ccc(Br)c(Cl)c2)C3)cc1` [Example 220, N-(benzofuran-5-ylmethyl)-7-(4-bromo-3-chloro-benzoyl)-2-(4-isopropoxyphenyl)-3-oxo-6,8-dihydro-5H-imidazo[1,5-a]pyrazine-1-carboxamide] here?
The EC50 was over 5 µM.

How did the EC50 turn out when `CC(C)Oc1ccc(-n2c(C(=O)NCc3ccc(CO)cc3)c3n(c2=O)CCN(C(=O)c2ccc(Br)c(Cl)c2)C3)cc1` [Example 221, 7-(4-bromo-3-chloro-benzoyl)-N-[[4-(hydroxymethyl)phenyl]methyl]-2-(4-isopropoxyphenyl)-3-oxo-6,8-dihydro-5H-imidazo[1,5-a]pyrazine-1-carboxamide] was run?
Its EC50 is over 5 µM.

With `CC(C)Oc1ccc(-n2c(C(=O)NCc3ccccc3C(N)=O)c3n(c2=O)CCN(C(=O)c2ccc(Br)c(Cl)c2)C3)cc1` [Example 222, 7-(4-bromo-3-chloro-benozyl)-N-[(2-carbamoylphenyl)methyl]-2-(4-isopropoxyphenyl)-3-oxo-6,8-dihydro-5H-imidazo[1,5-a]pyrazine-1-carboxamide] as the molecule, how does the EC50 read?
Its EC50 is over 5 µM.

With `CC(C)Oc1ccc(-n2c(C(=O)NCc3ccccc3)c3n(c2=O)CCN(C(=O)c2ccc(Br)nc2)C3)cc1` [Example 223, N-benzyl-7-(6-bromopyridine-3-carbonyl)-2-(4-isopropoxyphenyl)-3-oxo-6,8-dihydro-5H-imidazo[1,5-a]pyrazine-1-carboxamide] as the molecule, how does the EC50 read?
The EC50 was over 5 µM.

For `CC(C)Oc1ccc(-n2c(C(=O)NCc3ccccc3)c3n(c2=O)CCN(C(=O)c2cc4c(Cl)cccc4s2)C3)cc1` [Example 224, N-benzyl-7-(4-chlorobenzothiophene-2-carbonyl)-2-(4-isopropoxyphenyl)-3-oxo-6,8-dihydro-5H-imidazo[1,5-a]pyrazine-1-carboxamide], which EC50 is on record?
Its EC50 is over 5 µM.

For `CC(C)Oc1ccc(-n2c(C(=O)NCc3ccccc3)c3n(c2=O)CCN(C(=O)/C=C/c2cccc(Cl)c2Cl)C3)cc1` [Example 226, N-benzyl-7-[(E)-3-(2,3-dichlorophenyl)prop-2-enoyl]-2-(4-isopropoxyphenyl)-3-oxo-6,8-dihydro-5H-imidazo[1,5-a]pyrazine-1-carboxamide], which EC50 is on record?
The EC50 was over 5 µM.

`CC(C)Oc1ccc(-n2c(C(=O)NCc3ccc(S(C)(=O)=O)cc3)c3n(c2=O)CCN(C(=O)c2ccc(Br)c(Cl)c2)C3)cc1` [Example 227, 7-(4-bromo-3-chloro-benzoyl)-2-(4-isopropoxypehnyl)-N-[(4-methylsulfonylphenyl)methyl]-3-oxo-6,8-dihydro-5H-imidazo[1,5-a]pyrazine-1-carboxamide] was tested. Which EC50 did it give?
The EC50 was 0.5 to 5 µM.

Which EC50 does the source give for `COc1ccc(CNC(=O)c2c3n(c(=O)n2-c2ccc(OC(C)C)cc2)CCN(C(=O)c2ccc(Br)c(Cl)c2)C3)c(OC)c1` [Example 228, 7-(4-bromo-3-chloro-benzoyl)-N-[(2,4-dimethoxypehnyl)methyl]-2-(4-isopropoxyphenyl)-3-oxo-6,8-dihydro-5H-imidazo[1,5-a]pyrazine-1-carboxamide] here?
Its EC50 is 0.1 to 0.5 µM.

`COc1ccc(CNC(=O)c2c3n(c(=O)n2-c2ccc(OCC(F)(F)F)cc2)CCN(C(=O)c2ccc(Br)c(Cl)c2)C3)c(OC)c1` [Example 229, 7-(4-bromo-3-chloro-benozyl)-N-[(2,4-dimethoxyphenyl)methyl]-3-oxo-2-[4-(2,2,2-trifluoroethoxy)phenyl]-6,8-dihydro-5H-imidazo[1,5-a]pyrazine-1-carboxamide] was tested. Which EC50 did it give?
The EC50 was under 0.1 µM.

`O=C(NCc1cccc2cccnc12)c1c2n(c(=O)n1-c1ccc(OCC(F)(F)F)cc1)CCN(C(=O)c1ccc(Br)c(Cl)c1)C2` [Example 230, 7-(4-bromo-3-chloro-benzoyl)-3-oxo-N-(8-quinolylmethyl)-2-[4-(2,2,2-triflurooethoxy)phenyl]-6,8-dihydro-5H-imidazo[1,5-a]pyrazine-1-carboxamide] was tested. Which EC50 did it give?
The EC50 was 0.1 to 0.5 µM.

For `O=C(NCc1ccccc1-n1cccn1)c1c2n(c(=O)n1-c1ccc(OCC(F)(F)F)cc1)CCN(C(=O)c1ccc(Br)c(Cl)c1)C2` [Example 231, 7-(4-bromo-3-chloro-benzoyl)-3-oxo-N[(2-pyrazol-1-ylphenyl)methyl]-2-[4-(2,2,2-trifluoroethoxy)phenyl]-6,8-dihydro-5H-imidazo[1,5-a]pyrazine-1-carboxamide], which EC50 is on record?
The EC50 was under 0.1 µM.

For `CC(C)Oc1ccc(-n2c(C(=O)NCc3ccc(=O)n(C)c3)c3n(c2=O)CCN(C(=O)c2ccc(Br)c(Cl)c2)C3)cc1` [Example 232, 7-(4-bromo-3-chloro-benzoyl)-2-(4-isopropoxyphenyl)-N-[(1-methyl-6-oxo-3-pyridyl)methyl]-3-oxo-6,8-dihydro-5H-imidazo[1,5-a]pyrazine-1-carboxamide], which EC50 is on record?
The EC50 was over 5 µM.

Which EC50 does the source give for `COc1cc(C#N)ccc1CNC(=O)c1c2n(c(=O)n1-c1ccc(OC(C)C)cc1)CCN(C(=O)c1ccc(Br)c(Cl)c1)C2` [Example 236, 7-(4-bromo-3-chloro-benzoyl)-N-[(4-cyano-2-methoxy-phenyl)methyl]-2-(4-isopropoxyphenyl)-3-oxo-6,8-dihydro-5H-imidazo[1,5-a]pyrazine-1-carboxamide] here?
The EC50 was 0.1 to 0.5 µM.

Which EC50 does the source give for `O=C(c1ccc(Br)c(Cl)c1)N1CCn2c(c3n(c2=O)CC2(COC2)CN(Cc2ccccc2)C3=O)C1` [Example 239, 13-benzyl-4-(4-bromo-3-chloro-benzoyl)spiro[4,7,9,13-tetrazatricyclo[7.5.0.0 2,7]tetradec-1-ene-11,3′-oxetane]-8,14-dione] here?
The EC50 was 0.5 to 5 µM.

For `CC(C)Oc1ccc(-n2c(C(=O)NCc3ccccc3)c3n(c2=O)CCN(C(=O)/C=C/c2ccc(Cl)c(Cl)c2)C3)cc1` [Example 242, N-benzyl-7-[(E)-3-(3,4-dichlorophenyl)prop-2-enoyl]-2-(4-isopropoxyphenyl)-3-oxo-6,8-dihydro-5H-imidazo[1,5-a]pyrazine-1-carboxamide], which EC50 is on record?
Its EC50 is over 5 µM.

`CC(C)Oc1ccc(-n2c(C(=O)NCc3ccc(C(F)F)cc3)c3n(c2=O)CCN(C(=O)c2ccc(Br)c(Cl)c2)C3)cc1` [Example 243, 7-(4-bromo-3-chloro-benzoyl)-N-[[4-(difluoromethyl)phenyl]methyl]-2-(4-isopropoxyphenyl)-3-oxo-6,8-dihydro-5H-imidazo[1,5-a]pyrazine-1-carboxamide] was tested. Which EC50 did it give?
The EC50 was 0.1 to 0.5 µM.

For `COc1ccc(CNC(=O)c2c3n(c(=O)n2-c2ccc(OCC(F)(F)F)cc2)CCN(C(=O)c2ccc(Br)c(Cl)c2)C3)c(F)c1` [Example 244, 7-(4-bromo-3-chloro-benzoyl)-N-[(2-fluoro-4-methoxy-phenyl)methyl]-3-oxo-2-[4-(2,2,2-trifluoroethoxy)phenyl]-6,8-dihydro-5H-imidazo[1,5-a]pyrazine-1-carboxamide], which EC50 is on record?
The EC50 was 0.1 to 0.5 µM.

For `COc1ccc(CNC(=O)c2c3n(c(=O)n2-c2ccc(OCC(F)(F)F)cc2)CCN(C(=O)c2ccc(Br)c(Cl)c2)C3)c(C)c1` [Example 246, 7-(4-bromo-3-chloro-benzoyl)-N-[(4-methoxy-2-methyl-phenyl)methyl]-3-oxo-2-[4-(2,2,2-trifluoroethoxy)phenyl]-6,8-dihydro-5H-imidazo[1,5-a]pyrazine-1-carboxamide], which EC50 is on record?
The EC50 was 0.1 to 0.5 µM.

With `O=C(NCc1ccccc1)c1c2n(c(=O)n1-c1ccc3sccc3c1)CCN(C(=O)c1ccc(Br)c(Cl)c1)C2` [Example 248] as the molecule, how does the EC50 read?
Its EC50 is 0.1 to 0.5 µM.
